Target: T1, cathepsin C (CatC; dipeptidyl peptidase 1) (Homo sapiens, UniProt P53634)
T1 construct: gene CTSC
Assay: surface plasmon resonance with isolated human CatC (pH […]); enzymatic IC50 […]
Assay type: binding

T1 sequence (P53634 25-134): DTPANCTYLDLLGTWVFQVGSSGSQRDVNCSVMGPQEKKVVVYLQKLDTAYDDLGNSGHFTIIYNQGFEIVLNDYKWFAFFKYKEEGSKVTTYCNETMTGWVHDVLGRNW
T1 sequence (P53634 231-394): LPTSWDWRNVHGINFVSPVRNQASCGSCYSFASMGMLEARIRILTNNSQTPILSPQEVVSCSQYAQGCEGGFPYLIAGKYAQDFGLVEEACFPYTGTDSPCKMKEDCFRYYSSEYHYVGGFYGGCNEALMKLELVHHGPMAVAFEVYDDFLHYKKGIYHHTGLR
T1 sequence (P53634 395-463): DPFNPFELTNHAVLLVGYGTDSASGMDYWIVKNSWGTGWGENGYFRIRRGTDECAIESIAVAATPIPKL

## BI 1291583
  Kd: 0.43 nM

— publication PMC10962448, “The preclinical and phase 1 development of the novel oral cathepsin C inhibitor BI 1291583” (ERJ Open Research, 2024)
